Tests used:
[1] = test system: human dedifferentiated fat (DFAT) cells; test: Osteogenic differentiation assay: ALP activity in human DFAT cells; format: cell-based; conditions: osteogenic medium, 100 nM, 7 days, natural hormone 1 = 100%
Procedure: Mature adipocytes from the adipose tissue of mammals such as humans and rodents can be dedifferentiated into pluripotent cells using ceiling culture. Dedifferentiated fat (DFAT) cells have potential applications in both regenerative medicine and injury healing, as well as mesenchymal stem cells, embryonic stem cells, and induced pluripotent stem cells. The osteogenic activity of vitamin D derivatives was assessed based on alkaline phosphatase (ALP) activity.
Samples of human subcutaneous adipose tissue were obtained from patients who underwent surgery in the Department of Pediatric Surgery at Nihon University Itabashi Hospital (Tokyo, Japan). The patients gave their written informed consent, and the Ethics Committee of Nihon University School of Medicine approved this study. We prepared dedifferentiated fat (DFAT) cells using the ceiling culture method, as described previously. Briefly, the adipose tissue (approximately 1 g) was cut into small pieces and digested with a 0.1% type I collagenase solution (Koken Co., Ltd., Tokyo, Japan). […] The cells that adhered to the upper surface of the flasks were cultured for conversion to dedifferentiated fat cells. […] Cells at passages 2–4 were used for differentiation experiments.
Cells were grown to confluency in 24-well plates and incubated for a week in DMEM containing 10% FBS, 100 nM dexamethasone (Merk), 10 mM β-glycerophosphate (Merk), and […] L-ascorbic acid-2-phosphate (Merk), with 100 nM of each compound. The induction medium was replaced on day 4. The alkaline phosphatase (ALP) activity in the cell lysates was determined on day 7 with a lab assay ALP kit (Fujifilm wako). The total protein content was determined with the BCA protein assay kit (Thermo Fisher Scientific). ALP levels were normalized to the total protein content.

[2] = biological target: T1, VDR with RXRα (Homo sapiens, UniProt P11473); test: Mammalian two-hybrid assay, interaction of the VDR with RXRα
T1 sequence (P11473 1-427): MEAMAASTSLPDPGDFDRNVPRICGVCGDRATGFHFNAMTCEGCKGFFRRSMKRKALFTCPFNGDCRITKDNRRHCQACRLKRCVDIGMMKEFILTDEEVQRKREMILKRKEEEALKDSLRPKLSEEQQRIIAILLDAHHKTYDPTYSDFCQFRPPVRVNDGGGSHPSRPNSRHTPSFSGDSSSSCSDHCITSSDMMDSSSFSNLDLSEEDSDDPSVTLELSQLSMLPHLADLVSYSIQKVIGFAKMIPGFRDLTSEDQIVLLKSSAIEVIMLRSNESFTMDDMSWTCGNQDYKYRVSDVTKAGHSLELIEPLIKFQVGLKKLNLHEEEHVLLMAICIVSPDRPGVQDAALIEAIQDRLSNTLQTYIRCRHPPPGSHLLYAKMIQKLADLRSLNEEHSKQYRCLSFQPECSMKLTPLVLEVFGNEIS
T1 sequence (P19793 1-462 partner): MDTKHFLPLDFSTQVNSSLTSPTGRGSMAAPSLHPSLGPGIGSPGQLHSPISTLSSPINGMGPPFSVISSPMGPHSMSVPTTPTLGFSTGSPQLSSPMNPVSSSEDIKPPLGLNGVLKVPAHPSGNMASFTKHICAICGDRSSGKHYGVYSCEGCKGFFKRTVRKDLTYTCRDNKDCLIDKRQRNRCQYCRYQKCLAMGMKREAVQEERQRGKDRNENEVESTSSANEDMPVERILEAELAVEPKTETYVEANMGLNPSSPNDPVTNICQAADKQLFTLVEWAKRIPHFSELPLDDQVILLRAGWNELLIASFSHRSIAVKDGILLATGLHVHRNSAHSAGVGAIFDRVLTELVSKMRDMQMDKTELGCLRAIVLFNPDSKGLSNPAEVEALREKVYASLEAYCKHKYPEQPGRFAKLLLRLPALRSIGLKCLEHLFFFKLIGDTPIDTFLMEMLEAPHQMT

[3] = biological target: T2, VDR with NCoR (Homo sapiens, UniProt P11473); test: Mammalian two-hybrid assay, dissociation of NCoR from the VDR
T2 sequence (P11473 1-427): T1 sequence (P11473 1-427)

VDR-RXRα interaction EC50 ([2]; HEK293 cells, two-hybrid): second-highest activity | VDR-RXRα interaction efficacy ([2]; compared to natural hormone 1): 114% | IC50 [3]: 0.4 nM
SMILES: C=C1[C@H](O)CC(=C/C=C2\CCC[C@]3(C)[C@@H]([C@H](C)CC#C[C@](O)(CCCC)C45CC6CC(CC(C6)C4)C5)CC[C@@H]23)C[C@H]1O [ADKM6, (25S)-25-(1-Adamantyl)-1α,25-dihydroxy-2-methylidene-26-propyl-23-yne-19,27-dinorvitamin D3]
ALP activity [1]: 62.4%
